Reference: the supplement of paper PMC10627819
Converted amounts (≈) assume the structure as drawn.

Assays:
[1] = system: S. aureus DSM 20231; assay: fitness (endpoint OD595 vs no drug) (fraction); higher = more growth
Method in brief: (§1)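 With the first reading as background, OD595 was measured every 30 min for 14 h in 384-well plates kept at 37 °C and inoculated at OD595 0.01. TSB, LB Lennox or CY was the medium. Fitness is the optical density at the transition into stationary phase divided by the robust mean of no-drug control wells, with a cap of 1.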

[2] = system: B. subtilis 168; assay: as above
Method in brief: as §1

[3] = system: S. pneumoniae D39V; assay: as above
Method in brief: as §1

[4] = system: S. aureus Newman; assay: as above
Method in brief: as §1

[5] = system: B. subtilis 168
[6] = system: S. pneumoniae D39V
[7] = system: S. aureus DSM 20231
[8] = system: S. aureus Newman
[9] = system: S. aureus DSM 20231; assay: Bliss interaction score (quartile over a dose matrix) (fitness difference); higher = more antagonism (negative = synergy)
Method in brief: (§2)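 Fitness is OD595 at stationary-phase entry relative to the plate's robust no-drug mean, capped at 1. Single-drug fitness was inferred from combinations. The Bliss score is observed minus product-expected fitness, summarised by quartiles over technical, biological and donor/recipient replicates.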

[10] = system: B. subtilis 168; assay: as above
Method in brief: as §2

[11] = system: S. pneumoniae D39V; assay: as above
Method in brief: as §2

[12] = system: S. aureus Newman; assay: as above
Method in brief: as §2
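Wherever Bliss interaction score (quartile over a dose matrix) is given: first quartile when negative (synergy) and third quartile when positive (antagonism).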

COc1cc(Cc2cnc(N)nc2N)cc(OC)c1OC [Trimethoprim]
fitness
Conditions | 0.125 µg/mL | 0.25 µg/mL | 0.5 µg/mL | 1 µg/mL | 2 µg/mL
[1] | 0.8 | 0.662 | 0.143 | – | –
[2] | 0.623 | 0.478 | 0.45 | 0.334 | 0.31
[3] | – | – | 0.924 | 0.658 | 0.306
[4] | 0.857 | 0.725 | 0.248 | – | –

Conditions | MIC [µg/mL]
[5] | 2.5 (≈ 8.61 µM)
[6] | 4 (≈ 13.8 µM)

N[C@@H]1CONC1=O [Cycloserine D]
Conditions | fitness
[1], 0.375 µg/mL | ≥ 1
[1], 0.75 µg/mL | ≥ 1
[1], 1.5 µg/mL | ≥ 1
[2], 0.125 µg/mL | 0.963
[2], 0.25 µg/mL | 0.948
[2], 0.5 µg/mL | 0.966
[3], 2.188 µg/mL | 0.872
[3], 4.375 µg/mL | 0.81
[3], 8.75 µg/mL | 0.533
[4], 0.375 µg/mL | ≥ 1
[4], 0.75 µg/mL | ≥ 1
[4], 1.5 µg/mL | 0.983

Conditions | MIC [µg/mL]
[5] | 0.5 (≈ 4.9 µM)
[6] | 8.75 (≈ 85.7 µM)
[7] | 1.5 (≈ 14.7 µM)
[8] | 1.5 (≈ 14.7 µM)

O=C1CN(/N=C/c2ccc([N+](=O)[O-])o2)C(=O)N1 [Nitrofurantoin]
[3]
Conditions | fitness
2 µg/mL | 0.941
4 µg/mL | 0.888
8 µg/mL | 0.724

Conditions | MIC [µg/mL]
[5] | 16 (≈ 67.2 µM)
[6] | 16 (≈ 67.2 µM)
[7] | 8.89 (≈ 37.3 µM)
[8] | 10 (≈ 42 µM)

CC[C@H]1OC(=O)[C@H](C)[C@@H](O[C@H]2C[C@@](C)(OC)[C@@H](O)[C@H](C)O2)[C@H](C)[C@@H](O[C@@H]2O[C@H](C)C[C@H](N(C)C)[C@H]2O)[C@](C)(OC)C[C@@H](C)C(=O)[C@H](C)[C@@H](O)[C@]1(C)O [Clarithromycin]
fitness
Conditions | 0.0585 µg/mL | 0.0625 µg/mL | 0.117 µg/mL | 0.125 µg/mL | 0.234 µg/mL | 0.25 µg/mL
[1] | 0.94 | – | 0.691 | – | 0.0857 | –
[3] | – | 0.568 | – | 0.346 | – | 0.148

Conditions | MIC [µg/mL]
[6] | 0.5 (≈ 0.668 µM)
[7] | 0.234 (≈ 0.313 µM)
[8] | 0.5 (≈ 0.668 µM)

COc1c(N2C[C@@H]3CCCN[C@@H]3C2)c(F)cc2c(=O)c(C(=O)O)cn(C3CC3)c12 [Moxifloxacin]
Conditions | fitness
[1], 0.0075 µg/mL | 0.888
[1], 0.015 µg/mL | 0.824
[1], 0.03 µg/mL | 0.665
[2], 0.0312 µg/mL | 0.0397
[2], 0.0625 µg/mL | 0.0388
[2], 0.125 µg/mL | 0.0181
[2], 2 µg/mL | 0.0291
[2], 4 µg/mL | 0.0224
[2], 8 µg/mL | 0.0114
[3], 0.0037 µg/mL | 0.9
[3], 0.0075 µg/mL | 0.916
[3], 0.015 µg/mL | 0.862
[3], 0.0312 µg/mL | 0.134
[3], 0.0625 µg/mL | 0.088
[3], 0.125 µg/mL | 0.0638
[4], 0.0075 µg/mL | 0.748
[4], 0.015 µg/mL | 0.642
[4], 0.03 µg/mL | 0.0899

Conditions | MIC [µg/mL]
[6] | 0.25 (≈ 0.623 µM)
[7] | 0.033 (≈ 0.0822 µM)
[8] | 0.033 (≈ 0.0822 µM)

CN[C@H](CC(C)C)C(=O)N[C@H]1C(=O)N[C@@H](CC(N)=O)C(=O)N[C@H]2C(=O)N[C@H]3C(=O)N[C@H](C(=O)N[C@H](C(=O)O)c4cc(O)cc(O)c4-c4cc3ccc4O)[C@H](O)c3ccc(c(Cl)c3)Oc3cc2cc(c3O[C@@H]2O[C@H](CO)[C@@H](O)[C@H](O)[C@H]2O[C@H]2C[C@](C)(N)[C@H](O)[C@H](C)O2)Oc2ccc(cc2Cl)[C@H]1O [Vancomycin]
Conditions | fitness
[1], 0.1875 µg/mL | ≥ 1
[1], 0.375 µg/mL | ≥ 1
[1], 0.5 µg/mL | 0.981
[1], 0.75 µg/mL | ≥ 1
[1], 1 µg/mL | 0.977
[1], 2 µg/mL | 0.992
[2], 0.0468 µg/mL | 0.997
[2], 0.0935 µg/mL | 0.924
[2], 0.0938 µg/mL | 0.853
[2], 0.187 µg/mL | 0.0481
[2], 0.1875 µg/mL | 0.169
[2], 0.375 µg/mL | 0.0404
[3], 0.125 µg/mL | 0.97
[3], 0.25 µg/mL | 0.489
[3], 0.5 µg/mL | 0.159
[4], 0.1875 µg/mL | ≥ 1
[4], 0.375 µg/mL | 0.99
[4], 0.75 µg/mL | 0.999

Conditions | MIC [µg/mL]
[5] | 0.375 (≈ 0.259 µM)
[6] | 0.3 (≈ 0.207 µM)

CCC[C@@H]1C[C@@H](C(=O)N[C@@H]([C@H]2O[C@H](SC)[C@H](O)[C@@H](O)[C@H]2O)[C@@H](C)O)N(C)C1 [Lincomycin]
fitness
Conditions | 0.1 µg/mL | 0.2 µg/mL | 0.4 µg/mL | 0.8 µg/mL | 1.6 µg/mL
[1] | 0.932 | 0.767 | 0.315 | – | –
[2] | 0.862 | 0.823 | 0.852 | 0.878 | 0.854
[3] | – | 0.648 | 0.432 | 0.211 | –

Conditions | MIC [µg/mL]
[6] | 1.6 (≈ 3.94 µM)
[7] | 0.4 (≈ 0.984 µM)
[8] | 0.4 (≈ 0.984 µM)

O=C(N[C@H](CO)[C@H](O)c1ccc([N+](=O)[O-])cc1)C(Cl)Cl [Chloramphenicol]
Conditions | fitness
[1], 0.75 µg/mL | 0.878
[1], 1.5 µg/mL | 0.711
[1], 3 µg/mL | 0.0899
[2], 0.5 µg/mL | 0.834
[2], 1 µg/mL | 0.659
[3], 0.375 µg/mL | 0.893
[3], 0.75 µg/mL | 0.722
[3], 1.5 µg/mL | 0.407
[4], 0.75 µg/mL | 0.804
[4], 1.5 µg/mL | 0.514
[4], 3 µg/mL | 0.126

Conditions | MIC [µg/mL]
[6] | 2 (≈ 6.19 µM)
[7] | 3.5 (≈ 10.8 µM)
[8] | 3 (≈ 9.28 µM)

CC(=O)O[C@H]1C[C@@]2(C)[C@@H](C[C@@H](O)[C@H]3[C@@]4(C)CC[C@@H](O)[C@@H](C)[C@@H]4CC[C@@]32C)/C1=C(\CCC=C(C)C)C(=O)O [Fusidic acid]
Conditions | MIC [µg/mL]
[5] | 0.5 (≈ 0.968 µM)
[6] | 4 (≈ 7.74 µM)
[8] | 0.139 (≈ 0.269 µM)

CCCCCCCCCC(=O)N[C@H]1[C@H](Oc2c3cc4cc2Oc2ccc(cc2Cl)[C@@H](O[C@@H]2O[C@H](CO)[C@@H](O)[C@H](O)[C@H]2NC(C)=O)[C@@H]2NC(=O)[C@H](NC(=O)[C@@H]4NC(=O)[C@H]4NC(=O)[C@@H](Cc5ccc(c(Cl)c5)O3)NC(=O)[C@H](N)c3ccc(O)c(c3)Oc3cc(O)cc4c3)c3ccc(O)c(c3)-c3c(O[C@H]4O[C@H](CO)[C@@H](O)[C@H](O)[C@@H]4O)cc(O)cc3[C@@H](C(=O)O)NC2=O)O[C@H](CO)[C@@H](O)[C@@H]1O [Teicoplanin]
fitness, main component drawn
Conditions | 0.1562 µg/mL | 0.3125 µg/mL | 0.625 µg/mL | 1.25 µg/mL
[1] | ≥ 1 | ≥ 1 | ≥ 1 | ≥ 1
[4] | ≥ 1 | ≥ 1 | ≥ 1 | –

main component drawn
Conditions | MIC [µg/mL]
[6] | 0.062 (≈ 0.033 µM)
[7] | 0.7 (≈ 0.372 µM)
[8] | 0.7 (≈ 0.372 µM)

CC(=O)OC[C@H]1O[C@@H]([S-])[C@H](OC(C)=O)[C@@H](OC(C)=O)[C@@H]1OC(C)=O.CCP(CC)CC.[Au+] [Auranofin]
Conditions | MIC [µg/mL]
[7] | 0.5
[8] | 0.5

C/C(=C\C(=O)OCCCCCCCCC(=O)O)C[C@@H]1OC[C@H](C[C@@H]2O[C@H]2[C@@H](C)[C@H](C)O)[C@@H](O)[C@H]1O [Pseudomonic acid]
[3]
Conditions | fitness
0.03 µg/mL | 0.971
0.06 µg/mL | 0.822
0.12 µg/mL | 0.443

Conditions | MIC [µg/mL]
[6] | 0.25 (≈ 0.499 µM)

O=C(O[C@@H]1Cc2c(O)cc(O)cc2O[C@@H]1c1cc(O)c(O)c(O)c1)c1cc(O)c(O)c(O)c1 [EGCG] + COc1c(N2C[C@@H]3CCCN[C@@H]3C2)c(F)cc2c(=O)c(C(=O)O)cn(C3CC3)c12 [Moxifloxacin]
Conditions | Bliss interaction score
[9] | -0.0635
[10] | 0.04
[11] | -0.0486
[12] | 0.103

fitness
Conditions | first compound 6.25 µg/mL | first compound 12.5 µg/mL | first compound 25 µg/mL | first compound 50 µg/mL
[1], partner 0.0075 µg/mL | – | 0.686 | 0.605 | 0.629
[1], partner 0.015 µg/mL | – | 0.615 | 0.628 | 0.594
[1], partner 0.03 µg/mL | – | 0.53 | 0.554 | –
[2], partner 0.0312 µg/mL | 0.0635 | 0.316 | 0.136 | –
[2], partner 0.0625 µg/mL | 0.0647 | 0.0486 | 0.0468 | –
[2], partner 0.125 µg/mL | 0.0455 | 0.0337 | 0.032 | –
[2], partner 2 µg/mL | 0.0355 | 0.0567 | 0.0285 | –
[2], partner 4 µg/mL | 0.0375 | 0.028 | 0.0104 | –
[2], partner 8 µg/mL | 0.0396 | 0.0267 | 0.0587 | –
[3], partner 0.005 µg/mL | – | 0.942 | 0.947 | 0.973
[3], partner 0.01 µg/mL | – | 0.966 | 0.973 | 0.989
[3], partner 0.02 µg/mL | – | 0.918 | 0.933 | 0.931
[3], partner 0.0312 µg/mL | – | 0.265 | 0.152 | 0.499
[3], partner 0.0625 µg/mL | – | 0.0738 | 0.0517 | 0.944
[3], partner 0.125 µg/mL | – | 0.0322 | 0.0297 | 0.69
[4], partner 0.0075 µg/mL | – | 0.704 | 0.695 | –
[4], partner 0.015 µg/mL | – | – | – | 0.582
[4], partner 0.03 µg/mL | – | 0.3 | – | 0.0803

fitness, [1], one replicate
Conditions | first compound 12.5 µg/mL | first compound 25 µg/mL | first compound 50 µg/mL
partner 0.06 µg/mL | 0.636 | 0.584 | 0.607
partner 0.12 µg/mL | 0.537 | 0.495 | 0.506
